The target of this assay is T1, PTP1B (Homo sapiens, UniProt P18031).
T1 construct: purchased Abcam, Cambridge, UK
T1 sequence (P18031 1-435): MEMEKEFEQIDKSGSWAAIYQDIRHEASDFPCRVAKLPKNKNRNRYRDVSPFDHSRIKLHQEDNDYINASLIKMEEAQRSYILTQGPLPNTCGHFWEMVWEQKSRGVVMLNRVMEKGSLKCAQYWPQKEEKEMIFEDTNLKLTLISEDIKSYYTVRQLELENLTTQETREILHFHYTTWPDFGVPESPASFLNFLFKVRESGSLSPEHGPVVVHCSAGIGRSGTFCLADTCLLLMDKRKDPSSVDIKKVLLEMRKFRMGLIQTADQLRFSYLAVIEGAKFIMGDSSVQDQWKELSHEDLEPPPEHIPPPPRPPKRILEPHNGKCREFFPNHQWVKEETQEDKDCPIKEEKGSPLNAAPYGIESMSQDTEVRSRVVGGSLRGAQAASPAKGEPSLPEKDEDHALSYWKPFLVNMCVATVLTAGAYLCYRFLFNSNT
Kind of assay: PTP1B inhibition assay (pNPP substrate). The assay is classed as biochemical. As to conditions: human recombinant PTP1B, 37 °C, 30 min, triplicate, means ± SD, read-out: PTP1B inhibitory activity IC50. On the procedure:
The inhibitory activity of the isolated compounds against PTP1B (Abcam, Cambridge, UK, human recombinant) was assayed according to the method reported previously. The reagent p-nitrophenyl phosphate (pNPP) was used as the substrate, and oleanolic acid was used as the positive control. In brief, a 100 μL assay mixture containing 1 μg/mL PTP1B, samples, 4 mM pNPP, 55 mM NaCl, 2.2 mM DTT, 1.1 mM EDTA, and […] in 11 mM Tris-HCl, pH 7.5, was incubated at 37 °C for 30 min in a 96-well plate. The absorbance of 405 nm was measured by a microplate reader. Data were analyzed by GraphPad Prism v.10.2.0 software. All data were obtained in triplicate and presented as means ± SD.
For orientation: IC50 means the point on the concentration scale where inhibition reaches its midpoint. As for `C=C1CCC2(C(=O)O)CCC3(C)C(=CCC4C5(C)CC(O)C(OC(=O)C=Cc6ccc(O)cc6)C(C)(C)C5CCC43C)C2C1C` (stereo not drawn) [Compound 4, 3β-trans-p-coumaroyloxy-2α-hydroxy-12,20(30)-ursadien-28-oic acid], the IC50 came out at 48.7 ± 5.17 µM.
The result for `C=C1CCC2(C(=O)O)CCC3(C)C(=CCC4C5(C)CC(O)C(OC(=O)C=Cc6ccc(O)c(OC)c6)C(C)(C)C5CCC43C)C2C1C` (stereo not drawn) [Compound 5, 3β-trans-feruloyloxy-2α-hydroxy-12,20(30)-ursadien-28-oic acid] reads 23.7 ± 0.73 µM.
The value for `C=C1CC[C@]2(C(=O)O)CC[C@]3(C)C(=CC[C@@H]4[C@@]5(C)C[C@@H](O)[C@@H](OC(=O)/C=C/c6ccc(O)c(OC)c6)C(C)(C)[C@@H]5CC[C@]43C)[C@@H]2[C@H]1C` [Compound 6, 3α-trans-feruloyloxy-2α-hydroxy-12,20(30)-ursadien-28-oic acid] was 34 ± 4.88 µM; that for `C[C@H]1[C@H](C)CC[C@]2(C(=O)O)CC[C@]3(C)C(=CC[C@@H]4[C@@]5(C)C[C@@H](O)[C@H](OC(=O)/C=C\c6ccc(O)cc6)C(C)(C)[C@@H]5CC[C@]43C)[C@H]12` [Compound 10, 3β-O-cis-p-coumaroyl-2α-hydroxy-urs-12-en-28-oic acid] was 19.2 ± 0.22 µM.
The result for `C[C@H]1[C@H](C)CC[C@]2(C(=O)O)CC[C@]3(C)C(=CC[C@@H]4[C@@]5(C)C[C@@H](O)[C@H](OC(=O)/C=C/c6ccc(O)cc6)C(C)(C)[C@@H]5CC[C@]43C)[C@H]12` [Compound 11, jacoumaric acid] reads 26.2 ± 1.31 µM; that for `COc1cc(/C=C\C(=O)O[C@H]2[C@H](O)C[C@]3(C)[C@H]4CC=C5[C@@H]6[C@@H](C)[C@H](C)CC[C@]6(C(=O)O)CC[C@@]5(C)[C@]4(C)CC[C@H]3C2(C)C)ccc1O` [Compound 12, 3β-O-cis-feruloyl-2α-hydroxy-urs-12-en-28-oic acid], 16.2 ± 0.57 µM; that for `COc1cc(/C=C/C(=O)O[C@H]2[C@H](O)C[C@]3(C)[C@H]4CC=C5[C@@H]6[C@@H](C)[C@H](C)CC[C@]6(C(=O)O)CC[C@@]5(C)[C@]4(C)CC[C@H]3C2(C)C)ccc1O` [Compound 13, 3β-O-trans-feruloyl-2α-hydroxy-urs-12-en-28-oic acid], 10.3 ± 1.21 µM.
In the case of `C=C1CC[C@]2(C(=O)O)CC[C@]3(C)C(=CC[C@@H]4[C@@]5(C)C[C@@H](O)[C@@H](OC(=O)/C=C/c6ccc(O)cc6)C(C)(C)[C@@H]5CC[C@]43C)[C@@H]2[C@H]1C` [Compound 15, 3α-trans-coumaroyloxy-2α-hydroxy-12,20(30)-dien-28-ursolic acid], the IC50 amounted to 17.1 ± 1.67 µM.

These data come from article PMC11013491, “Triterpenoids from the Leaves of Diospyros digyna and Their PTP1B Inhibitory Activity” (Molecules, 2024).
